Results as given in patent US20230233569A1 (Revolution Medicines, Inc., priority 2020, published 2023).
Like-named read-outs stand apart in the source and are kept apart here.

Tests used:
NCI-H358 (K-Ras G12C) = assay: CellTiter-Glo cell viability assay; format: cell-based; details: Homo sapiens, NCI-H358, 120 h
Outline: (§1)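 Test compounds were dispensed directly onto seeded cells, and on day 5 plates were brought to room temperature for about 30 minutes before CellTiter-Glo luminescence was read. Signals were expressed as percent of the mean DMSO control and fitted with a four-parameter logistic model.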

AsPC-1 (K-Ras G12D) [1] = assay: CellTiter-Glo cell viability assay; format: cell-based; details: Homo sapiens, ASPC1, 120 h
Outline: as §1

KRAS G12C = KRAS G12C (Homo sapiens, UniProt P01116+P62937, G12C); assay: Ras-Raf disruption / FRET / MOA assay (BRAF RBD); format: biochemical; details: with Cyclophilin A
Outline: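 His6-K-Ras G12C-GMPPNP (12.5 nM), GST-BRAF RBD (50 nM) and tagless Cyclophilin A (25 μM) incubated 3 h at 25 °C with compound (10-point 3-fold series from 30 μM), pH 7.3 HEPES buffer. Anti-His Eu/anti-GST APC added for 1.5 h; decreased TR-FRET ratio vs DMSO gives IC50.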

AsPC-1 (K-Ras G12D) [2] = assay: Potency assay: pERK; format: cell-based; details: Homo sapiens
KRAS G12V = KRAS G12V (Homo sapiens, UniProt P01116+P62937, G12V); assay: Ras-Raf disruption / FRET / MOA assay (BRAF RBD); format: biochemical; details: with Cyclophilin A
Outline: (§2)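 TR-FRET in 25 mM HEPES pH 7.3, 100 mM NaCl, 5 mM MgCl2, 0.1% BSA, 0.002% Tween20 with 25 μM Cyclophilin A, 12.5 nM His6-Ras-GMPPNP, 50 nM GST-BRAF RBD; compound 10-point 3-fold series from 30 μM. After 3 h at 25 °C, Eu anti-His/APC anti-GST added for 1.5 h; IC50 from ratio decrease versus DMSO.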

KRAS G13C = KRAS G13C (Homo sapiens, UniProt P01116+P62937, G13C); assay: Ras-Raf disruption / FRET / MOA assay (BRAF RBD); format: biochemical; details: with Cyclophilin A
Outline: as §2

KRAS Q61H = KRAS Q61H (Homo sapiens, UniProt P01116+P62937, Q61H); assay: Ras-Raf disruption / FRET / MOA assay (BRAF RBD); format: biochemical
Outline: as §2

NRAS Q61R = NRAS Q61R (Homo sapiens, UniProt P01111+P62937, Q61R); assay: Ras-Raf disruption / FRET / MOA assay (BRAF RBD); format: biochemical
Outline: as §2

KRAS G13D = KRAS G13D (Homo sapiens, UniProt P01116+P62937, G13D); assay: Ras-Raf disruption / FRET / MOA assay (BRAF RBD); format: biochemical; details: with Cyclophilin A
Outline: as §2

KRAS WT = KRAS WT (Homo sapiens, UniProt P01116+P62937); assay: Ras-Raf disruption / FRET / MOA assay (BRAF RBD); format: biochemical; details: with Cyclophilin A
Outline: as §2

KRAS G12D = KRAS G12D (Homo sapiens, UniProt P01116+P62937, G12D); assay: Ras-Raf disruption / FRET / MOA assay (BRAF RBD); format: biochemical; details: with Cyclophilin A
Outline: as §2

KRAS G12S = KRAS G12S (Homo sapiens, UniProt P01116+P62937, G12S); assay: Ras-Raf disruption / FRET / MOA assay (BRAF RBD); format: biochemical; details: with Cyclophilin A
Outline: as §2

NRAS Q61K = NRAS Q61K (Homo sapiens, UniProt P01111+P62937, Q61K); assay: Ras-Raf disruption / FRET / MOA assay (BRAF RBD); format: biochemical
Outline: as §2

NRAS G12C = NRAS G12C (Homo sapiens, UniProt P01111+P62937, G12C); assay: Ras-Raf disruption / FRET / MOA assay (BRAF RBD); format: biochemical
Outline: as §2

[3] = read-out: H358 Cell Viability assay data IC50, K-Ras G12C, 5-day treatment
[4] = read-out: AsPC-1 Cell Viability assay data IC50, K-Ras G12D, 5-day treatment
[5] = KRAS G12C FRET data IC50, Ras-Raf disruption
[6] = KRAS G12V FRET data IC50, Ras-Raf disruption
[7] = KRAS G13C FRET data IC50, Ras-Raf disruption
[8] = KRAS G13D FRET data IC50, Ras-Raf disruption
[9] = KRAS WT FRET data IC50, Ras-Raf disruption
[10] = KRAS G12D FRET data IC50, Ras-Raf disruption
[11] = KRAS G12S FRET data IC50, Ras-Raf disruption
[12] = NRAS G12C FRET data IC50, NRAS G12C

Chain of KRAS G12V (P01116 1-169 isoform P01116-2 G12V limits assumed): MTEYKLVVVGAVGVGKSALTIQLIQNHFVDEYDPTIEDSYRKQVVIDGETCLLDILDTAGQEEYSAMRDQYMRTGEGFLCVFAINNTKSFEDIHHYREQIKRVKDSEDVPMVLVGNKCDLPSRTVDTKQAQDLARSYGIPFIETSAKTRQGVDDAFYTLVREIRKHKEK
Chain of KRAS G12V (P62937 whole entry): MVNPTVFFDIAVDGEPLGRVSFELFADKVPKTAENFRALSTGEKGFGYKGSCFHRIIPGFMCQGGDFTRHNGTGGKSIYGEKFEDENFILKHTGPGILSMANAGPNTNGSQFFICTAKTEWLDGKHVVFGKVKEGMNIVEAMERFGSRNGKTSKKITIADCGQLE
Chain of KRAS G13D (P01116 1-169 isoform P01116-2 G13D limits assumed): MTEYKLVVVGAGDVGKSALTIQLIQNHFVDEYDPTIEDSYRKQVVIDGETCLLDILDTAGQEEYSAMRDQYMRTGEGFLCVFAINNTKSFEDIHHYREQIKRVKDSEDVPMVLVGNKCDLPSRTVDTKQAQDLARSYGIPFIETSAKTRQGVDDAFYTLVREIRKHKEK
Chain of KRAS G13D (P62937 whole entry): as the sequence (P62937 whole entry) above
Chain of NRAS G12C (P01111 whole entry G12C): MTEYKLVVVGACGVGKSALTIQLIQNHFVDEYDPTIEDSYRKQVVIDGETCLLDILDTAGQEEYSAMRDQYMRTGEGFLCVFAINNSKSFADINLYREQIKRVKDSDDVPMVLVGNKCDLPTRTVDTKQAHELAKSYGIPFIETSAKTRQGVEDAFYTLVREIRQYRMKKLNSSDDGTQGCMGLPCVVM
Chain of NRAS G12C (P62937 whole entry): as the sequence (P62937 whole entry) above
Chain of KRAS WT (P01116 1-169 isoform P01116-2 limits assumed): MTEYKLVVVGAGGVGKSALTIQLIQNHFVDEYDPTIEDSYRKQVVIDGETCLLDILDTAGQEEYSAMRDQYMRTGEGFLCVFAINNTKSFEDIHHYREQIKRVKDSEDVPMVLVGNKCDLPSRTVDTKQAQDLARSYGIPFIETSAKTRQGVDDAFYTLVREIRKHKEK
Chain of KRAS WT (P62937 whole entry): as the sequence (P62937 whole entry) above
Chain of KRAS G12S (P01116 1-169 isoform P01116-2 G12S limits assumed): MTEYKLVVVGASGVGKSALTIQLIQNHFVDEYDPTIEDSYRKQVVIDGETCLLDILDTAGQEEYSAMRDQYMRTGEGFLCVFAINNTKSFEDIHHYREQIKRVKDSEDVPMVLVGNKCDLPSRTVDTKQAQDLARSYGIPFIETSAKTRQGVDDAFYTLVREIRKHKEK
Chain of KRAS G12S (P62937 whole entry): as the sequence (P62937 whole entry) above
Chain of KRAS G12C (P01116 1-169 isoform P01116-2 G12C limits assumed): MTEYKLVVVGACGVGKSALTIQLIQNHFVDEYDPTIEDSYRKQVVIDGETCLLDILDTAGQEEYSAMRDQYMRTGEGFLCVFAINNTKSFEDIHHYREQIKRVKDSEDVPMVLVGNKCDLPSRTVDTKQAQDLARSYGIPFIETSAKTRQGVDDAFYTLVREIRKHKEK
Chain of KRAS G12C (P62937 whole entry): as the sequence (P62937 whole entry) above
Chain of KRAS G12D (P01116 1-169 isoform P01116-2 G12D limits assumed): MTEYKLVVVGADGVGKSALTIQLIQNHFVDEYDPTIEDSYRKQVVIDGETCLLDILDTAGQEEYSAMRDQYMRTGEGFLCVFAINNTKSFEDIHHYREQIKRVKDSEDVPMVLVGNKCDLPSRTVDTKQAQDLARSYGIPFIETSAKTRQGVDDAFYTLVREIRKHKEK
Chain of KRAS G12D (P62937 whole entry): as the sequence (P62937 whole entry) above
Chain of KRAS G13C (P01116 1-169 isoform P01116-2 G13C limits assumed): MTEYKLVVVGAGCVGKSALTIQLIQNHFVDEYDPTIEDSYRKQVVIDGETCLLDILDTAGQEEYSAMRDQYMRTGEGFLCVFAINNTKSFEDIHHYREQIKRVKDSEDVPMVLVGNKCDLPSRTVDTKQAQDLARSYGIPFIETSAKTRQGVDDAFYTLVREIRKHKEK
Chain of KRAS G13C (P62937 whole entry): as the sequence (P62937 whole entry) above
Chain of KRAS Q61H (P01116 1-169 isoform P01116-2 Q61H limits assumed): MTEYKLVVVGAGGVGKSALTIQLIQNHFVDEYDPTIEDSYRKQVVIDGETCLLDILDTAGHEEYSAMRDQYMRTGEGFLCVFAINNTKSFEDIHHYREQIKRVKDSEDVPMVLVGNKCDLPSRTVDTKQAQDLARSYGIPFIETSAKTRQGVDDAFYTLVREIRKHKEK
Chain of KRAS Q61H (P62937 whole entry): as the sequence (P62937 whole entry) above
Chain of NRAS Q61K (P01111 whole entry Q61K): as the sequence (P01111 whole entry G12C) above, with C12G, Q61K counted along it
Chain of NRAS Q61K (P62937 whole entry): as the sequence (P62937 whole entry) above
Chain of NRAS Q61R (P01111 whole entry Q61R): as the sequence (P01111 whole entry G12C) above, with C12G, Q61R counted along it
Chain of NRAS Q61R (P62937 whole entry): as the sequence (P62937 whole entry) above

| Structure (SMILES) | IC50 (NCI-H358 (K-Ras G12C); [3]) | IC50 (AsPC-1 (K-Ras G12D) [1]; [4]) | IC50 (KRAS G12C; [5]) | EC50 (AsPC-1 (K-Ras G12D) [2]; ASPC1, read-out: pERK EC50) | IC50 (KRAS G12V; [6]) | IC50 (KRAS G13C; [7]) | IC50 (KRAS G13D; [8]) | IC50 (KRAS WT; [9]) | IC50 (KRAS G12D; [10]) | IC50 (KRAS G12S; [11]) | IC50 (NRAS G12C; [12]) | other results |
| --- | --- | --- | --- | --- | --- | --- | --- | --- | --- | --- | --- | --- |
| CCn1c(-c2cccnc2[C@H](C)OC)c2c3cc(ccc31)-c1cc(O)cc(c1)C[C@H](NC(=O)[C@H](C(C)C)N(C)C(=O)CN(C)C(=O)[C@@H]1CN1CCCOC(C)=O)C(=O)N1CCC[C@H](N1)C(=O)OCC(C)(C)C2 (stereo partly drawn) [Example 267] | < 10 nM | 100 to 1000 nM | < 10 nM | < 5000 nM | 10 to 100 nM | 10 to 100 nM | 100 to 1000 nM | 10 to 100 nM | 10 to 100 nM | 10 to 100 nM | < 10 nM | IC50 (KRAS Q61H): 10 to 100 nM; IC50 (NRAS Q61R): 100 to 1000 nM; IC50 (NRAS Q61K): 100 to 1000 nM |
| CCn1c(-c2cccnc2[C@H](C)OC)c2c3cc(ccc31)-c1cc(O)cc(c1)C[C@H](NC(=O)[C@H](C(C)C)N(C)C(=O)CN(C)C(=O)[C@@H]1N[C@@H]1C1CC1)C(=O)N1CCC[C@H](N1)C(=O)OCC(C)(C)C2 [Example 133] | 10 to 100 nM | 10 to 100 nM | 10 to 100 nM | < 5000 nM | 10 to 100 nM | 10 to 100 nM | 10 to 100 nM | 10 to 100 nM | 10 to 100 nM | 10 to 100 nM | 10 to 100 nM | – |
| CCn1c(-c2cccnc2[C@H](C)OC)c2c3cc(ccc31)-c1cc(O)cc(c1)C[C@H](NC(=O)[C@H](C(C)C)N(C)C(=O)CN(C)C(=O)[C@@H]1CN1CCCOC)C(=O)N1CCC[C@H](N1)C(=O)OCC(C)(C)C2 (stereo partly drawn) [Example 137] | < 10 nM | 100 to 1000 nM | < 10 nM | < 5000 nM | 10 to 100 nM | 10 to 100 nM | 10 to 100 nM | 10 to 100 nM | 10 to 100 nM | 10 to 100 nM | < 10 nM | – |
| CCn1c(-c2cccnc2[C@H](C)OC)c2c3cc(ccc31)-c1cc(O)cc(c1)C[C@H](NC(=O)[C@H](C(C)C)N(C)C(=O)CN(C)C(=O)[C@@H]1N[C@H]1COC)C(=O)N1CCC[C@H](N1)C(=O)OCC(C)(C)C2 [Example 85] | 10 to 100 nM | 1000 to 10000 nM | 10 to 100 nM | < 5000 nM | 10 to 100 nM | < 10 nM | 10 to 100 nM | 10 to 100 nM | 100 to 1000 nM | 10 to 100 nM | 10 to 100 nM | – |
| CCn1c(-c2cccnc2[C@H](C)OC)c2c3cc(ccc31)-c1cccc(c1)C[C@H](NC(=O)[C@H](C(C)C)N(C)C(=O)[C@H]1CCN(C(=O)[C@H]3CN3)C1)C(=O)N1CCC[C@H](N1)C(=O)OCC(C)(C)C2 [Example 106] | – | – | – | – | – | – | – | – | – | – | – | IC50 (NCI-H358 (K-Ras G12C); K-Ras G12C, 5-day treatment, read-out: H358 Cell Viability assay data IC50): < 10 nM; IC50 (AsPC-1 (K-Ras G12D) [1]; K-Ras G12D, 5-day treatment, read-out: AsPC-1 Cell Viability assay data IC50): 1000 to 10000 nM; IC50 (KRAS G12C; Ras-Raf disruption, read-out: KRAS G12C FRET data IC50): 10 to 100 nM; EC50 (AsPC-1 (K-Ras G12D) [2]; ASPC1, AsPC-1 KRAS G12D, read-out: pERK EC50): < 5000 nM; IC50 (KRAS G12V; Ras-Raf disruption, read-out: KRAS G12V FRET data IC50): 1000 to 10000 nM; IC50 (KRAS G13C; Ras-Raf disruption, read-out: KRAS G13C FRET data IC50): 100 to 1000 nM; IC50 (KRAS G13D; Ras-Raf disruption, read-out: KRAS G13D FRET data IC50): 1000 to 10000 nM; IC50 (KRAS WT; Ras-Raf disruption, read-out: KRAS WT FRET data IC50): 1000 to 10000 nM; IC50 (KRAS G12D; Ras-Raf disruption, read-out: KRAS G12D FRET data IC50): 1000 to 10000 nM; IC50 (KRAS G12S; Ras-Raf disruption, read-out: KRAS G12S FRET data IC50): 1000 to 10000 nM; IC50 (NRAS G12C; NRAS G12C, read-out: NRAS G12C FRET data IC50): 10 to 100 nM |
| CCn1c(-c2cccnc2[C@H](C)OC)c2c3cc(ccc31)-c1cc(O)cc(c1)C[C@H](NC(=O)[C@H](C(C)C)N(C)C(=O)CN(C)C(=O)[C@H]1CN1C(C)C)C(=O)N1CCC[C@H](N1)C(=O)OCC(C)(C)C2 (stereo partly drawn) [Example 142] | < 10 nM | 100 to 1000 nM | < 10 nM | < 5000 nM | 100 to 1000 nM | 10 to 100 nM | 100 to 1000 nM | 100 to 1000 nM | 100 to 1000 nM | 10 to 100 nM | < 10 nM | – |
